# US9770026B2, “Substituted pyrimidine compound and uses thereof” (Shenyang Sinochem Agrochemicals R&D Co., Ltd., priority 2012, dated 2017)
# Experiments:
# carmine spider mite = assay: bioactivity test against carmine spider mite, airbrush spray; format: in vivo
# Method in brief: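 Broadbean seedlings infested with adult mites were sprayed with compound (acetone/methanol stock diluted in 0.1% Tween 80 water) by airbrush at 0.7 kg/cm^2, 0.5 ml. Three replicates were run. Mortality was scored after 72 hrs.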
# Diamond back moth = assay: insecticidal activity against diamond back moth, airbrush spray; format: in vivo; details: for Insecticidal activity against diamond back moth (%) / pest or weed control at 600 µg/mL: 600 mg/L; for control (test results against diamond back moth): 600 ppm
# Method in brief: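 Airbrush leaf-disc spray test: both faces of 2 cm cabbage discs received 0.5 ml of test solution at 0.7 kg/cm^2. Solutions were made in acetone:methanol (1:1) and brought to concentration with 0.1% Tween 80 in water. Ten second-instar larvae per disc, triplicates, were held at 25° C and 60˜70% R.H., with mortality recorded at 72 hrs.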
# armyworm = assay: bioactivity test against armyworm, airbrush spray; format: in vivo; details: for Insecticidal activity against armyworm (%) / pest or weed control at 600 µg/mL: 600 mg/L; for control (test results against armyworm): 600 ppm
# cucumber downy mildew = assay: protectant activity in vivo against cucumber downy mildew; details: protectant activity; for pest or weed control at 25 µg/mL / pest or weed control at 50 µg/mL / pest or weed control at 100 µg/mL / pest or weed control at 400 µg/mL: Cucumis sativus, 168 h; for pest or weed control at 25 µg/mL: read-out: control effect against cucumber downy mildew (%), 25 mg/L; for pest or weed control at 50 µg/mL: read-out: control effect against cucumber downy mildew (%), 50 mg/L; for pest or weed control at 100 µg/mL: read-out: control effect against cucumber downy mildew (%), 100 mg/L; for pest or weed control at 400 µg/mL: read-out: control effect against cucumber downy mildew (%), 400 mg/L
# [1] = system: Green peach aphids (Myzus Persicae Sulzer); assay: bioactivity test against green peach aphid, airbrush foliar spray; format: in vivo; details: for Insecticidal activity against peach aphid (%) / pest or weed control at 600 µg/mL: contrastive test; for pest or weed control at 600 µg/mL: read-out: Insecticidal activity against peach aphid (%)
# Method in brief: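 Death rate was scored at 48 hrs, held at 25±1 C and 60±5% RH, following airbrush foliar spray (0.5 mL, 10 psi) onto cabbage leaf discs bearing about 15-30 aphids. Test solutions: compound dissolved in 1:1 acetone:methanol, brought to concentration with 0.1% tween 80 water.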
# wheat powdery mildew = assay: protectant activity in vivo against wheat powdery mildew; details: for control effect against wheat powdery mildew (%): 400 mg/L; for pest or weed control at 6.25 µg/mL: read-out: control effect against wheat powdery mildew (%), 6.25 mg/L; for pest or weed control at 25 µg/mL: read-out: control effect against wheat powdery mildew (%), 25 mg/L; for pest or weed control at 100 µg/mL: read-out: control effect against wheat powdery mildew (%), 100 mg/L; for pest or weed control at 400 µg/mL: read-out: control effect against wheat powdery mildew (%), 400 mg/L
# corn rust = assay: protectant activity in vivo against corn rust; details: for control effect against corn rust (%): 400 mg/L; for control effect against corn rust (%) / pest or weed control at 6.25 µg/mL / pest or weed control at 25 µg/mL / pest or weed control at 100 µg/mL / pest or weed control at 400 µg/mL: protectant activity; for pest or weed control at 6.25 µg/mL / pest or weed control at 25 µg/mL / pest or weed control at 100 µg/mL / pest or weed control at 400 µg/mL: Zea mays, 168 h; for pest or weed control at 6.25 µg/mL: read-out: control effect against corn rust (%), 6.25 mg/L; for pest or weed control at 25 µg/mL: read-out: control effect against corn rust (%), 25 mg/L; for pest or weed control at 100 µg/mL: read-out: control effect against corn rust (%), 100 mg/L; for pest or weed control at 400 µg/mL: read-out: control effect against corn rust (%), 400 mg/L
# [2] = 72 h, read-out: Insecticidal activity against armyworm (%)
# [3] = Myzus persicae, foliar, 48 h, 600 mg/L
# [4] = Triticum aestivum, 168 h, protectant activity
# [5] = Tetranychus cinnabarinus, 72 h, 600 mg/L, contrastive test, read-out: Insecticidal activity against carmine spider mite (% )
# [6] = 600 ppm, mortality after 72 hrs
# [7] = 600 ppm, death rate after 48 hrs
structure (smiles),measurement,setting,value
"CCc1ncnc(NC(C)c2ccc(Oc3ccccc3)nc2)c1Cl (stereo not drawn) [CK8, reference compound]",Insecticidal activity against carmine spider mite (% ),"carmine spider mite; 600 mg/L, contrastive test",54%
same,Insecticidal activity against diamond back moth (%),Diamond back moth,33%
same,Insecticidal activity against armyworm (%),armyworm,17%
same,control effect against cucumber downy mildew (%),cucumber downy mildew; 25 mg/L,75%
same,control effect against cucumber downy mildew (%),cucumber downy mildew; 50 mg/L,80%
same,control effect against cucumber downy mildew (%),cucumber downy mildew; 100 mg/L,95%
same,control effect against cucumber downy mildew (%),cucumber downy mildew; 400 mg/L,98%
same,Insecticidal activity against peach aphid (%),[1]; 600 mg/L,0%
same,control effect against wheat powdery mildew (%),wheat powdery mildew; protectant activity,0%
same,control effect against corn rust (%),corn rust,50%
"CCc1ncnc(NC(=O)Cc2ccc(Oc3ncc(C(F)(F)F)cc3Cl)cc2)c1Cl [CK16, reference compound]",Insecticidal activity against carmine spider mite (% ),"carmine spider mite; 600 mg/L, contrastive test",0%
same,Insecticidal activity against diamond back moth (%),Diamond back moth,0%
same,Insecticidal activity against armyworm (%),armyworm,0%
same,control effect against cucumber downy mildew (%),cucumber downy mildew; 400 mg/L,85%
same,Insecticidal activity against peach aphid (%),[1]; 600 mg/L,64%
same,control effect against wheat powdery mildew (%),wheat powdery mildew; protectant activity,70%
same,control effect against corn rust (%),corn rust,0%
"Cc1ncnc(NCc2ccc(Oc3ncc(C(F)(F)F)cc3Cl)cc2)c1Cl [CK23, reference compound]",Insecticidal activity against carmine spider mite (% ),"carmine spider mite; 600 mg/L, contrastive test",64%
same,pest or weed control at 600 µg/mL,Diamond back moth; 72 h,0%
same,pest or weed control at 600 µg/mL,armyworm; [2],0%
same,control effect against cucumber downy mildew (%),cucumber downy mildew; 400 mg/L,100%
same,pest or weed control at 25 µg/mL,cucumber downy mildew,0%
same,pest or weed control at 50 µg/mL,cucumber downy mildew,0%
same,pest or weed control at 100 µg/mL,cucumber downy mildew,0%
same,pest or weed control at 600 µg/mL,[1]; [3],0%
same,control effect against wheat powdery mildew (%),wheat powdery mildew; protectant activity,100%
same,pest or weed control at 6.25 µg/mL,wheat powdery mildew; [4],0%
same,pest or weed control at 25 µg/mL,wheat powdery mildew; [4],0%
same,pest or weed control at 100 µg/mL,wheat powdery mildew; [4],0%
same,pest or weed control at 6.25 µg/mL,corn rust,0%
same,pest or weed control at 25 µg/mL,corn rust,0%
same,pest or weed control at 100 µg/mL,corn rust,0%
same,pest or weed control at 400 µg/mL,corn rust,100%
"Cc1ncnc(NC(C)c2ccc(Oc3ncc(C(F)(F)F)cc3Cl)cc2)c1Cl (stereo not drawn) [CK27, reference compound]",pest or weed control at 10 µg/mL,"carmine spider mite; Tetranychus cinnabarinus, 72 h, 10 mg/L, contrastive test, read-out: Insecticidal activity against carmine spider mite (% )",18%
same,pest or weed control at 100 µg/mL,"carmine spider mite; Tetranychus cinnabarinus, 72 h, 100 mg/L, contrastive test, read-out: Insecticidal activity against carmine spider mite (% )",100%
same,pest or weed control at 600 µg/mL,carmine spider mite; [5],100%
same,pest or weed control at 600 µg/mL,Diamond back moth; 72 h,0%
same,pest or weed control at 600 µg/mL,armyworm; [2],29%
same,pest or weed control at 25 µg/mL,cucumber downy mildew,0%
same,pest or weed control at 50 µg/mL,cucumber downy mildew,0%
same,pest or weed control at 100 µg/mL,cucumber downy mildew,0%
same,pest or weed control at 400 µg/mL,cucumber downy mildew,100%
same,pest or weed control at 600 µg/mL,[1]; [3],0%
same,pest or weed control at 400 µg/mL,wheat powdery mildew; [4],80%
same,pest or weed control at 6.25 µg/mL,corn rust,30%
same,pest or weed control at 25 µg/mL,corn rust,90%
same,pest or weed control at 100 µg/mL,corn rust,100%
same,pest or weed control at 400 µg/mL,corn rust,100%
"Cc1ncnc(NCc2ccc(Oc3c(Cl)cc([N+](=O)[O-])cc3Cl)cc2)c1Cl [CK65, reference compound]",pest or weed control at 600 µg/mL,carmine spider mite; [5],0%
same,pest or weed control at 10 µg/mL,"Diamond back moth; 72 h, 10 mg/L",5%
same,pest or weed control at 100 µg/mL,"Diamond back moth; 72 h, 100 mg/L",35%
same,pest or weed control at 600 µg/mL,Diamond back moth; 72 h,86%
same,pest or weed control at 600 µg/mL,armyworm; [2],0%
same,pest or weed control at 400 µg/mL,cucumber downy mildew,0%
same,pest or weed control at 600 µg/mL,[1]; [3],0%
same,pest or weed control at 400 µg/mL,wheat powdery mildew; [4],0%
same,pest or weed control at 400 µg/mL,corn rust,0%
"CCc1ncnc(NCc2ccc(Oc3c(Cl)cc([N+](=O)[O-])cc3Cl)cc2)c1Cl [CK66, reference compound]",pest or weed control at 600 µg/mL,carmine spider mite; [5],0%
same,pest or weed control at 600 µg/mL,Diamond back moth; 72 h,0%
same,pest or weed control at 600 µg/mL,armyworm; [2],0%
same,pest or weed control at 400 µg/mL,cucumber downy mildew,0%
same,pest or weed control at 600 µg/mL,[1]; [3],0%
same,pest or weed control at 400 µg/mL,wheat powdery mildew; [4],0%
same,pest or weed control at 400 µg/mL,corn rust,0%
CCc1ncnc(NCCc2ccc(Oc3ccc(C(F)(F)F)cc3)cc2)c1Cl.Cl [II-19334],Insecticidal activity against carmine spider mite (% ),carmine spider mite; 2.5 mg/L,87%
same,Insecticidal activity against carmine spider mite (% ),carmine spider mite; 5 mg/L,100%
same,Insecticidal activity against carmine spider mite (% ),"carmine spider mite; 10 mg/L, contrastive test",100%
same,Insecticidal activity against carmine spider mite (% ),"carmine spider mite; 100 mg/L, contrastive test",100%
same,Insecticidal activity against carmine spider mite (% ),"carmine spider mite; 600 mg/L, contrastive test",100%
same,control against carmine spider mite,"carmine spider mite; 10 ppm, mortality after 72 hrs",100%
same,control against carmine spider mite,"carmine spider mite; 100 ppm, mortality after 72 hrs",100%
same,control against carmine spider mite,carmine spider mite; [6],100%
same,pest or weed control at 2.5 ppm,"carmine spider mite; Tetranychus cinnabarinus, 72 h, 2.5 ppm, mortality after 72 hrs",80 to 99%
same,pest or weed control at 5 ppm,"carmine spider mite; Tetranychus cinnabarinus, 72 h, 5 ppm, mortality after 72 hrs",100%
same,control (test results against diamond back moth),Diamond back moth; mortality after 72 hrs,100%
same,pest or weed control at 100 ppm,"Diamond back moth; 72 h, 100 ppm, mortality after 72 hrs, read-out: control (test results against diamond back moth)",100%
same,control (test results against armyworm),armyworm; mortality after 72 h,100%
same,pest or weed control at 10 µg/mL,"armyworm; 72 h, 10 mg/L, read-out: Insecticidal activity against armyworm (%)",44%
same,pest or weed control at 100 µg/mL,"armyworm; 72 h, 100 mg/L, read-out: Insecticidal activity against armyworm (%)",84%
same,pest or weed control at 600 µg/mL,armyworm; [2],100%
same,pest or weed control at 100 ppm,"armyworm; 72 h, 100 ppm, mortality after 72 h",80 to 99%
same,Insecticidal activity against peach aphid (%),[1]; 1.25 mg/L,67%
same,Insecticidal activity against peach aphid (%),[1]; 2.5 mg/L,83%
same,Insecticidal activity against peach aphid (%),[1]; 5 mg/L,96%
same,Insecticidal activity against peach aphid (%),[1]; 10 mg/L,100%
same,Insecticidal activity against peach aphid (%),[1]; 100 mg/L,100%
same,Insecticidal activity against peach aphid (%),[1]; 600 mg/L,100%
same,control (test results against green peach aphid),"[1]; 10 ppm, death rate after 48 hrs",100%
same,control (test results against green peach aphid),"[1]; 100 ppm, death rate after 48 hrs",100%
same,control (test results against green peach aphid),[1]; [7],100%
same,pest or weed control at 2.5 ppm,"[1]; Myzus persicae, foliar, 48 h, 2.5 ppm, death rate after 48 hrs",80 to 99%
same,protectant activity against wheat powdery mildew in vivo,wheat powdery mildew; 25 ppm,100%
same,protectant activity against wheat powdery mildew in vivo,wheat powdery mildew; 100 ppm,100%
same,protectant activity against wheat powdery mildew in vivo,wheat powdery mildew; 400 ppm,100%
same,pest or weed control at 1.6 µg/mL,"wheat powdery mildew; Triticum aestivum, 168 h, read-out: control effect against wheat powdery mildew (%), 1.6 mg/L, protectant activity",60%
same,pest or weed control at 6.25 µg/mL,wheat powdery mildew; [4],100%
same,pest or weed control at 25 µg/mL,wheat powdery mildew; [4],100%
same,pest or weed control at 100 µg/mL,wheat powdery mildew; [4],100%
same,pest or weed control at 400 µg/mL,wheat powdery mildew; [4],100%
same,pest or weed control at 6.25 ppm,"wheat powdery mildew; Triticum aestivum, 168 h, read-out: protectant activity against wheat powdery mildew in vivo, 6.25 ppm",100%
same,protectant activity against corn rust in vivo,corn rust; 400 ppm,100%
Cc1ncnc(NCCc2ccc(Oc3cccc(C(F)(F)F)c3)nc2)c1Cl [III-21],control against carmine spider mite,carmine spider mite; [6],100%
same,control (test results against diamond back moth),Diamond back moth; mortality after 72 hrs,100%
same,control (test results against armyworm),armyworm; mortality after 72 h,100%
same,control (test results against green peach aphid),[1]; [7],100%
same,protectant activity against wheat powdery mildew in vivo,wheat powdery mildew; 400 ppm,100%
same,protectant activity against corn rust in vivo,corn rust; 100 ppm,100%
same,protectant activity against corn rust in vivo,corn rust; 400 ppm,100%
